These results are taken from patent US4223020A, “Synthetic peptides having pituitary growth hormone releasing activity” (Beckman Instruments, Inc., priority 1979, dated 1980).

Non-standard residues stand in square brackets, D forms with d. Residues, ends and D or L forms follow the SMILES beside them.

The subject of the test is pituitaries removed from 20 day old female rats. Kind of test: In vitro growth hormone release study (incubated rat pituitaries, GH radioimmunoassay). It counts as cell-based. Particulars: mean ± SEM, two pituitaries in 1 ml lactated Ringer's, 36° C. As to the method: Female rats of the CD-1 strain were housed in a constant temperature room at 24° C. with 14 hours light and 10 hours darkness. The rats were fed Purina brand rat chow ab libitum.
All studies were started between 0800 and 1000 hours.
Pituitaries were removed from 20 day old female rats. Two pituitaries were incubated at 36° C. in 1 ml of lactated Ringer's solution in 10 ml polytetrafluoroethylene beakers in a Dubnoff Shaker (90 cycles/min.). The pituitaries were incubated a total of 4 hours (P1, P2, I3, and I4). After two successive one hour preincubation periods (P1, P2), the peptide was added to the incubation medium hourly for 2 hours (I3, I4).
This in vitro study was performed in triplicate and a standard radioimmunoassay of growth hormone present in the incubation medium was performed in duplicate. The hormonal activity was calculated as the difference (Δ) of growth hormone (GH) levels between I3, I4 and P2, i.e., (I3 -P2) and (I4 -P2). P values were calculated by Students' t test using six growth hormone values for each value recorded.
The growth hormone radioimmunoassay reagents were distributed by the National Institute of Arthritis and […] (NIAMDD) program. The growth hormone values were calculated in terms of nanograms (ng) of a rat standard with a growth hormone potency of 0.61 units/mg.

Take “H2 N-Tyr-D-Trp-D-Trp-Phe-CONH2 [H2 N--Tyr--D-Trp--D-Trp--Phe--CONH2]”: the “In vitro growth hormone release (Δ GH levels, I3-P2 and I4-P2)” value by setting is: (0.1μg peptide) 453 ± 48 ng GH/ml incubation medium; (1μg peptide) 686 ± 82 ng GH/ml incubation medium; (10μg peptide) 1790 ± 160 ng GH/ml incubation medium; (100μg peptide) 984 ± 355 ng GH/ml incubation medium.
For `NC(=O)[C@H](Cc1ccc(O)cc1)NC(=O)[C@@H](Cc1c[nH]c2ccccc12)NC(=O)[C@@H](Cc1c[nH]c2ccccc12)NC(=O)[C@@H](N)Cc1ccc(O)cc1` [H2 N--Tyr--D-Trp--D-trp--Tyr--CONH2, H2 N-Tyr-D-Trp-D-Trp-Tyr-CONH2] (H-Y[dW][dW]Y-NH2), the “In vitro growth hormone release (Δ GH levels, I3-P2 and I4-P2)” value reads like this: (0.3μg peptide) 345 ± 103 ng GH/ml incubation medium; (1μg peptide) 1111 ± 572 ng GH/ml incubation medium; (10μg peptide) 1898 ± 267 ng GH/ml incubation medium.
